# Reference: patent publication US7863330B2, “Deloxiglumide and proton pump inhibitor combination in the treatment of gastrointestinal disorders” (Rottapharm S.p.A., priority 2006, dated 2011)
# Columns and labels:
# [1] = target: T1, CCK1 receptors (Homo sapiens, UniProt P32238); conditions: cited from earlier work
# T1 sequence (P32238 1-428): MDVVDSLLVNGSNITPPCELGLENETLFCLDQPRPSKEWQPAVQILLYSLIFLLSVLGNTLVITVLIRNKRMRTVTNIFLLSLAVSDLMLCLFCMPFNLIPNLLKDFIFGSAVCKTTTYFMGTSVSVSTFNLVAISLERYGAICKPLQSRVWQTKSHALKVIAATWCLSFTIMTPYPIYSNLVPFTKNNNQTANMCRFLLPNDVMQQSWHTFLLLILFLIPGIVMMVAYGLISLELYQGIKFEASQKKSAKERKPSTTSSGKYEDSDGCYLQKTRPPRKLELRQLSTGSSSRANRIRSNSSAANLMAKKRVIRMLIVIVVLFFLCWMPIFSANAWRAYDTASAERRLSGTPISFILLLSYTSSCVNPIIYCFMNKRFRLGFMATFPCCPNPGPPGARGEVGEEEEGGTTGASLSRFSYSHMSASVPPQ
# [2] = system: endogenous and exogenous CCK; conditions: cited from earlier work
# [3] = system: CCK-induced delay in gastric emptying; conditions: healthy subjects; cited from earlier work
# [4] = system: CCK release in response to duodenal lipid infusion; conditions: healthy subjects, cited from earlier work
# [5] = system: antro-pyloroduodenal dysmotility; conditions: healthy subjects; intraduodenal infusion of a mixed liquid meal; cited from earlier work
# [6] = system: nonulcer dyspepsia; conditions: cited from earlier work
# [7] = system: acute reflux esophagitis in pylorus-ligated rats; assay: Acute reflux esophagitis in pylorus- and limiting ridge-ligated rats; format: in vivo; parameters: key to Average Score lesions: lesion index 0 = no lesion to 6 = hemorrhage >40 mm/perforation; conditions: for ED50: Rattus norvegicus, intraduodenal, compound administered separately, intraduodenally, from dose-response regression line, read-out: ED50 (dose which reduces the esophagus lesions by 50%); for % Effect vs. control: after 3 hours; for Average Score lesions: esophagus lesion index 0-6 after 3 hours
# Protocol: Male rats of 175-200 g body weight were fasted for 24 hours prior the experiment. Water was allowed ad libitum. Under ether anesthesia, the abdomen was incised along the midline, and both pylorus and limiting ridge (transitional region between the forestomach and corpus) were simultaneously ligated. Consequently, the total capacity of the stomach to hold gastric juice was greatly diminished, resulting in reflux of gastric juice into the esophagus. Following ligation of pylorus and limiting ridge, the test compounds were given intraduodenally (5 ml/kg), and the abdomen was closed by suturing. After 3 hours, rats were killed by ether overdose and the gastroesophageal portion was excised. The lesion in the thoracic esophagus was scored macroscopically, using a lesion index according to the following criteria: no lesion as 0; edema as 1; reddening as 2; the length of hemorrhagic area<20 mm as 3; the length of hemorrhagic area 20-30 mm as 4; the length of hemorrhagic area 30-40 mm as 5; the length of hemorrhagic area>40 mm or perforation as 6.
# The doses of the tested compounds which reduce of 50% the esophagus lesions (ED50) and their P=0.05 fiducial limits were calculated from the dose-response regression line.
# [8] = system: functional dyspepsia; conditions: patients with functional dyspepsia; duodenal infusion of lipid with or without balloon distension; compared to placebo; cited from earlier work
# [9] = system: gastrointestinal motility; conditions: preclinical and clinical studies; cited from earlier work
# [10] = target: T2, CCK2 receptors (Homo sapiens, UniProt P32239); conditions: cited from earlier work
# T2 sequence (P32239 1-447): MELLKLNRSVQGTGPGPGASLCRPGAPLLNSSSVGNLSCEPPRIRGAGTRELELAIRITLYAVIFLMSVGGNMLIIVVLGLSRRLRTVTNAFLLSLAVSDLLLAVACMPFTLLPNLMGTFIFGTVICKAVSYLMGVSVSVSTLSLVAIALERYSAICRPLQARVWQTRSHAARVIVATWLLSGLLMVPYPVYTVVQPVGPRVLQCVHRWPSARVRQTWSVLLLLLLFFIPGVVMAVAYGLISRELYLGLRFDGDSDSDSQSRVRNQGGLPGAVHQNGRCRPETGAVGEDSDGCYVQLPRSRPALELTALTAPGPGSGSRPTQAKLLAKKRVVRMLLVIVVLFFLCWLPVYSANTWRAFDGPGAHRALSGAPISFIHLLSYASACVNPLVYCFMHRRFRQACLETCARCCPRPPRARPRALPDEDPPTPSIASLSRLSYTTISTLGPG
structure (smiles),measurement,setting,value
"CCCCCN(CCCOC)C(=O)C(CCC(=O)O)NC(=O)c1ccc(Cl)c(Cl)c1 (racemic) [Loxiglumide, R,S-4-(3,4-dichlorobenzoylamino)-5-(N-3-methoxypropyl-pentylamino)-5-oxo-pentanoic acid]",potency and specificity as CCK receptor antagonist,[1],"potent, specific competitive antagonists"
same,activity after oral administration,[2],active after oral administration
same,exogenous and endogenous CCK-induced delay in gastric emptying of liquids and solids,[3],reduced
same,proximal gastric relaxation,[4]; duodenal infusion of lipid,the relaxation was reversed
same,intragastric pressure,[4]; duodenal infusion of lipids,able to reverse the lowering of intragastric pressure
same,antro-pyloroduodenal dysmotility,[5],modulated antro-pyloroduodenal dysmotility
same,dyspeptic symptoms,"[6]; patients with non-ulcer dyspepsia, 8-week study",significantly improved dyspeptic symptoms
same,gastric emptying,"[6]; patients with nonulcer dyspepsia and delayed gastric emptying, comparison to placebo",accelerate gastric emptying
COc1ccc2[nH]c([S+]([O-])Cc3ncc(C)c(OC)c3C)nc2c1 (stereo not drawn) [Omeprazole],ED50,[7],5.4 mg/kg
same,% Effect vs. control,[7]; dose 0.1 mg/kg intraduodenally,3.4%
same,Average Score lesions,[7]; dose 0.1 mg/kg intraduodenally,5.6
same,% Effect vs. control,[7]; dose 0.3 mg/kg intraduodenally,0%
same,Average Score lesions,[7]; dose 0.3 mg/kg intraduodenally,5.8
same,% Effect vs. control,[7]; dose 1.0 mg/kg intraduodenally,14.3%
same,Average Score lesions,[7]; dose 1.0 mg/kg intraduodenally,4.8
same,% Effect vs. control,[7]; dose 3.0 mg/kg intraduodenally,53.4%
same,Average Score lesions,[7]; dose 3.0 mg/kg intraduodenally,2.7
"CCCCCN(CCCCC)C(=O)C(CCC(=O)O)NC(=O)c1ccc(Cl)c(Cl)c1 (racemic) [Lorglumide, R,S-4-[(3,4-Dichlorobenzoyl)amino]-5-(dipentylamino)-5-oxopentanoic acid]",potency and specificity as CCK receptor antagonist,[1],"potent, specific competitive antagonists"
same,activity after oral administration,[2],active after oral administration
"CCCCCN(CCCOC)C(=O)[C@@H](CCC(=O)O)NC(=O)c1ccc(Cl)c(Cl)c1 [Dexloxiglumide, R-4-(3,4-dichlorobenzoylamino)-5-(N-3-methoxypropyl-pentylamino)-5-oxo-pentanoic acid]",ED50,[7],37.5 mg/kg
same,% Effect vs. control,[7]; dose 10 mg/kg intraduodenally,0%
same,Average Score lesions,[7]; dose 10 mg/kg intraduodenally,5.8
same,% Effect vs. control,[7]; dose 20 mg/kg intraduodenally,17.2%
same,Average Score lesions,[7]; dose 20 mg/kg intraduodenally,4.8
same,% Effect vs. control,[7]; dose 40 mg/kg intraduodenally,51.7%
same,Average Score lesions,[7]; dose 40 mg/kg intraduodenally,2.6
same,% Effect vs. control,[7]; dose 60 mg/kg intraduodenally,62.1%
same,Average Score lesions,[7]; dose 60 mg/kg intraduodenally,2.2
same,% Effect vs. control,[7]; dose 100 mg/kg intraduodenally,100%
same,Average Score lesions,[7]; dose 100 mg/kg intraduodenally,0
same,potency relative to the racemic compound (loxiglumide),[1]; anti-CCK activity,approximately twice
same,tolerance to water volume,[4]; duodenal lipid infusion,reversed the diminished tolerance to water volume
same,dyspepsia symptom scores,[8],significantly improved dyspepsia symptom scores
same,colonic transit,[9],accelerates colonic transit
same,gallbladder contraction,[9],effective inhibitor of gallbladder contraction
same,gastric emptying,[9],accelerates gastric emptying
same,lower esophageal sphincter (LES) function,[9],improves lower esophageal sphincter (LES) function
CCCN(CCC)C(=O)C(CCC(=O)O)NC(=O)c1ccccc1 (stereo not drawn) [proglumide],potency and specificity as CCK receptor antagonist,[1],low potency and specificity
same,binding to CCK2 receptors,[10],effectively binds CCK2 receptors
